From patent US20200239832A1, “TOLERANCE OF MICROBIAL CELLS AGAINST ORTHO-AMINOBENZOATE IN PRESENCE OF ALKALI IONS AT NEUTRAL PH” (priority 2017, published 2020)

Assays:
Format in all cases: cell-based, Corynebacterium glutamicum
[1] = tested on: modified C. glutamicum production strain; test: Evaluation of the maximum tolerable oAB concentration, batch cultivation in 1 L bioreactor
Description: FIG. 1: Evaluation of the maximum tolerable oAB concentration during batch cultivation in a 1 L lab-scale bioreactor with a modified C. glutamicum production strain. Addition of 20 mL of a 500 g/L oAB stock solution (oAB dissolved with NaOH at pH 7) after 23 h and 39 h, 48 h (two times), 64 h (two times) and 71 h (two times) and addition of glucose solution after 40 h, 48 h, 63 h, 65 and 71.5 h to prevent a glucose limitation. Initial cultivation volume VL=1 L, temperature 30° C., pH=7 controlled by adding NH4OH (10 w % NH3) during cultivation, gassing rate with air=0.2 L/min, pO2 controlled at 30% air saturation by adjusting the stirrer speed between 200 and 1200 rpm.
The maximum tolerable oAB concentration in the presence of sodium ions in the medium was tested with a modified C. glutamicum production strain. This strain was derived from Corynebacterium glutamicum ATCC 13032 by evolutionary engineering in order to increase its resistance against oAB.
This strain was then genetically modified to make it capable of oAB-production. […]

[2] = tested on: C. glutamicum strain derived from ATCC 13032 by evolutionary engineering; test: Comparison of metabolic activity after NH4-oAB and Na-oAB addition, batch cultivation in 1 L bioreactors (Example 2); details: 40 mL of 500 g/L oAB stock solution at pH 7 added after 7 h and 24 h; FIG. 2
Description: (§1) FIG. 2: Influence of Na-oAB and NH4-oAB addition on oAB resistance during batch cultivation in 1 L scale with C. glutamicum ATCC 13032. Filled symbols: addition of 40 mL of 500 a oAB stock solution (oAB dissolved with NaOH at pH 7) after 7 h and 24 h. Open symbols: addition of 40 mL of 500 g/L oAB stock solution (oAB dissolved with NH4OH at pH 7) after 7 h and 24 h. Both bioreactors: addition of 36 g/L glucose (added as stock solution) after 7.5 h and 24.5 h to prevent a glucose limitation. Initial cultivation volume VL=1 L, temperature 30° C., pH=7 controlled with NH4OH (10 w % NH3), gassing rate with air=0.2 L/min, pO2 controlled at 30% air saturation by adjusting the stirrer speed between 200 and 1200 rpm.
A C. glutamicum strain derived from ATCC 13032 was used to compare the metabolic activity after NH4-oAB and Na-oAB addition during the cultivation. This strain was derived from Corynebacterium glutamicum ATCC 13032 by evolutionary engineering in order to increase its resistance against oAB.
It was not further genetically modified. Thus it was not capable of oAB-production. For this purpose, two 1 L bioreactors were filled with sterile cultivation medium including the following initial concentrations: 20 g/L glucose, 5 g/L (NH4)2SO4, 1 g/L KH2PO4, 1 g/L K2HPO4, 0.25 g/L MgSO4.7 H2O, 0.01 g/L CaCl2.2 H2O, 2 mg/L biotin (vitamin B7), 0.03 g/L protocatechuic acid (3,4-Dihydroxybenzoic acid), 0.01 g/L MnSO4.H2O, 0.01 g/L FeSO4.7H2O, 1 mg/L ZnSO4.7H2O, 0.2 mg/L CuSO4.5H2O and 0.02 mg/L NiCl2.6H2O.
(§2) The preculture medium for the cultivation in shake flasks contained additionally 42 g/L MOPS buffer, 3.7 g/L brain heart infusion broth, 5 g/L urea (CH4N2O) and 20 a (NH4)2SO4 (instead of 5 g/L). The preculture was cultivated in 300 mL shake flasks with a liquid volume of 25 mL at a temperatur of 28° C. and a shaking frequency of 180 rpm until OD600>20 was reached.

[3] = tested on: C. glutamicum ATCC 13032; test: Comparison of metabolic activity after NH4-oAB and Na-oAB addition, batch cultivation in 1 L bioreactors (Example 3); details: for biomass accumulation after oAB addition: 40 mL of 500 g/L oAB stock solution at pH 7 added after 6.4 h and 23.6 h, FIG. 3
Description: as §1, with “FIG. 3:” for “FIG. 2:”, “500 g/L” for “500 a”, “after 6.4” for “after 7”, “and 23.6” for “and 24”, “h.” for “h. Both bioreactors: addition of 36 g/L glucose (added as stock solution) after 7.5 h and 24.5 h to prevent a glucose limitation.”
The influence of NH4 was tested with C. glutamicum ATCC 13032 (without further genetic modifications, not modified by evolutionary engineering) using two 1 L bioreactors filled with sterile cultivation medium including the following initial concentrations: […], 5 g/L (NH4)2SO4, 1 g/L KH2PO4, 1 g/L K2HPO4, 0.25 g/L MgSO4.7 H2O, 0.01 g/L CaCl2.2 H2O, 2 mg/L biotin (vitamin B7), 0.03 g/L protocatechuic acid (3,4-Dihydroxybenzoic acid), 0.01 g/L MnSO4.H2O, 0.01 g/L FeSO4.7H2O, 1 mg/L ZnSO4.7H2O, 0.2 mg/L CuSO4.5H2O and 0.02 mg/L NiCl2.6H2O.
as §2, with “20 g/L” for “20 a”
During the fermentation the temperature was controlled at 30° C. and pH was kept constant at pH=7 by adding aqueous NH4OH solution (10 w % NH3). The gassing rate was adjusted to 0.2 L/min air and the dissolved oxygen tension was controlled at 30% air saturation by adjusting the stirrer speed between 200 rpm and 1200 rpm.
40 mL of a 500 g/L oAB stock solution (oAB dissolved with NaOH at pH 7) was added to reactor 1 after 6.4 h and 23.6 h (filled symbols) and 40 mL of a 500 g/L oAB stock solution (oAB dissolved with NH4OH at pH 7) was added after 6.4 h and 23.6 h to reactor 2 (open symbols)
From this it follows that the toxicity of oAB on C. glutamicum ATCC 13032 in presence of high Na+ concentrations is reduced compared to the toxicity in presence of high NH4^+ concentrations.

[4] = according to FIG. 3, NH4+ as counter ion

Row | Compound | oAB concentration at which growth (increase in biomass concentration) was still observed ([1]; oAB added stepwise as sodium salt (dissolved with NaOH at pH 7), pH 7 controlled with NH4OH, 30° C.) [g/L] | oAB concentration resulting in a decrease of the metabolic activity (declining OTR signal) and no further increase in biomass ([1]; oAB increased from 80 g/L to 100 g/L after 71 h, added as sodium salt, pH 7, 30° C.) [g/L] | OTR signal after oAB addition [2] | biomass concentration after oAB addition [2] | biomass accumulation after oAB addition [3] | o-aminobenzoate concentration above which the metabolic activity of bacterial cells (OTR) is limited [3, 4] | o-aminobenzoate concentration at which cell growth (dry weight) stops [3, 4] [g/L]
1 | Nc1ccccc1C(=O)O [oAB, 2-aminobenzoic acid] | 80 | 100 | – | – | – | – | –
2 | Nc1ccccc1C(=O)[O-].[Na+] [Na-oAB] | – | – | continued to increase | continued to increase | biomass accumulation continued | – | –
3 | N.Nc1ccccc1C(=O)O [NH4-oAB] | – | – | constant OTR signal | reduced biomass accumulation | growth inhibition after 24 h | more than 25 g/L | > 50
